One assay deals with Pseudomonas aeruginosa. The class given is in vivo. Conditions: 100 μg/mouse i.p., twenty-four hours later infection; blood fifteen hours after bacteria; FIG. 19. As for the experimental part: Twenty-four hours later, the mice were infected with 3.0×10^10 CFU/mL Pseudomonas aeruginosa. Fifteen hours after administration of the bacteria, blood was collected from the heart using an injection with a needle tip containing a small amount of heparin, and 200 μL of whole blood was then inoculated on a common agar medium. Thereafter, it was incubated in an incubator for 16 hours. Subsequently, the number of colonies on the medium was counted.
When there were a large number of cells, whole blood was diluted with a normal saline solution by a factor of 10, 100, 1000 or 10000, and the thus diluted solution was inoculated on a common agar medium.

For assay [1], the system named is breast cancer cells (FM3A cells). Format: in vivo. Conditions: 100 μg/mouse i.p. twenty-four hours before FM3A inoculation, nineteen days later. The procedure: The 100 μg/mouse test compound obtained in Example 9 (emulsion solution) was intraperitoneally administered to each mouse, and twenty-four hours later, breast cancer cells (FM3A cells) were inoculated into the abdominal cavity thereof. Nineteen days later, the body weight of each mouse was measured. In addition, the tissue sections of diaphragm, pancreas and testis were subjected to HE staining, and they were then observed under a microscope. As a result, the body weight of the breast cancer cell-inoculated mouse was increased by approximately 10 g, when compared with a control mouse, and it was observed that the mouse contained a large amount of ascites fluid.

Assay [2] concerns rabbit neutrophils. The assay is described as follows: Measurement of amount of active oxygen released from rabbit neutrophils. Format: cell-based. Conditions: 50 μM, 2 hours; FIG. 3. The procedure:
5 ml of the ACD solution was placed in a 20-ml syringe (injection needle [Nipro]), so that the inside of the syringe was entirely rinsed therewith. 20 ml of blood was collected from the central auricular artery of a rabbit using the syringe, and the collected blood was gently shaken upside down. Thereafter, the blood was dispensed into three centrifuge tubes (15 ml type; Falcon), and each tube was then subjected to centrifugation at 4° C. at 1,500 rpm for 5 minutes. Thereafter, the supernatant was recovered into a centrifuge tube (50 ml type; Falcon). A 1.2% dextran-PBS solution was added to the recovered supernatant in an amount equal the supernatant, and the obtained mixture was then gently shaken upside down. Thereafter, the mixture was left at a room temperature for 30 minutes or more. The emergence of an interface was confirmed, and the supernatant was placed in a new centrifuge tube (50 ml type; Falcon). […]
The influence of the test compound on the release of active oxygen from rabbit neutrophils was measured by the following procedures.
Neutrophils (1.0×10^5 cells/100 μl) were plated on a 96-well plate (Falcon). […] The obtained mixture was incubated at 37° C. for 2 hours, and the amount of active oxygen released was measured using a fluorescence measurement apparatus (Ex: 485 nm, Em: 535 nm).

For assay [3], the system named is Pseudomonas aeruginosa (Fhu-071115 strain). Format: in vivo. As for the experimental part: As a test compound, 1 mg of the compound synthesized by the method described in Production Example α-1 was weighed. An emulsion solution of the test compound was prepared in the same manner as described above.
Pseudomonas aeruginosa (Fhu-071115 strain) derived from patients was used, and it was prepared as follows.
L-broth was withdrawn with a 40-ml measuring pipette and was then added to a 200-ml flask, and the flask was then sealed with a sponge plug. At the same time, 5 ml of L-broth was added to each of two other screw-top test tubes. The thus prepared flask and screw-top test tubes were subjected to an autoclave at 121° C. for 20 minutes. After the L-broth medium had been cooled to a room temperature, Pseudomonas aeruginosa, which had been stored in an ultra low temperature freezer, was added into 40 ml of the L-broth the medium in a clean bench. The obtained mixture was shaken in an incubator overnight. Thereafter, the resultant was centrifuged at 9000 rpm for 15 minutes, and the supernatant was then removed. […] This process was carried out three times. Thereafter, 4.5 ml of sterilized normal saline solution was added to the resultant, and the mixture was then blended with the use of a Vortex mixer. The obtained solution was used as a strain stock solution. Using a 1000-fold diluted strain solution, the number of cells was counted with OneCell Counter. Thereafter, the strain stock solution was diluted to a desired concentration, and the thus diluted solution was then used in the subsequent test.
Mice were divided into two groups, and the following two types of experiments were carried out. • (A) The aforementioned emulsion solution containing the test compound (100 μg/mouse) was intraperitoneally administered to a group of three mice (ICR, 5-week-old). Three hours later, Pseudomonas aeruginosa (5.0×10^7 cells/mouse) was intraperitoneally administered to the mice. Thereafter, the condition of the mice was observed. (B) Pseudomonas aeruginosa (2.0×10^7 cells/mouse) was intraperitoneally administered to a group of three mice (ICR, 5-week-old). Three hours later, the aforementioned emulsion solution containing the test compound (100 μg/mouse) was intraperitoneally administered to the mice. Thereafter, the condition of the mice was observed.

Assay [4] deals with rabbit neutrophils. The class given is cell-based.

The structures appear in SMILES notation.

As for `CCCCCCCCCC(CCCCCCCCC)CC(=O)OCC1O[C@H](O[C@H]2OC(COC(=O)CC(CCCCCCCCC)CCCCCCCCC)[C@@H](O)C(O)C2O)C(O)C(O)[C@@H]1O` (stereo partly drawn) [Example 9, 6,6′-bis-O-(3-nonyldodecanoyl)-α,α′-trehalose], the “Pseudomonas aeruginosa cells in mouse blood (colonies)” value with Pseudomonas aeruginosa is “not detected”. In assay [1], the “body weight of breast cancer cell-inoculated mouse” value was “equivalent to that of a control mouse”. In addition, the “infiltration and metastasis of the cancer cells into various organs (diaphragm, pancreas, testis)” value in assay [1] (HE staining, FIG. 20) was “not observed at all”.

As for `CCCCCCCCCCC(CCCCCCCCCC)C(=O)OCC1O[C@H](O[C@H]2OC(COC(=O)C(CCCCCCCCCC)CCCCCCCCCC)[C@@H](O)C(O)C2O)C(O)C(O)[C@@H]1O` (stereo partly drawn) [Example 1, 6,6′-bis-O-(2-decyldodecanoyl)-α,α′-trehalose], the “action to activate the release of active oxygen from rabbit neutrophils, compared with TDCM” value in the assay on rabbit neutrophils [2] was “approximately two times higher than the activity of TDCM”. Also, the “Number of surviving mice/number of treated mice, 2 hours later (Group A)” value in assay [3] (Group A: pre-administration 100 μg/mouse i.p., three hours later Pseudomonas aeruginosa 5.0×10^7 cells/mouse i.p., 2 hours later) is reported as 3/3. For the same molecule, the “Number of surviving mice/number of treated mice, 4 hours later (Group A)” value in assay [3] (Group A: pre-administration 100 μg/mouse i.p., three hours later Pseudomonas aeruginosa 5.0×10^7 cells/mouse i.p., 4 hours later) was 3/3. In addition, the “Number of surviving mice/number of treated mice, 15 hours later (Group A)” value in assay [3] (Group A: pre-administration 100 μg/mouse i.p., three hours later Pseudomonas aeruginosa 5.0×10^7 cells/mouse i.p., 15 hours later) is on record as 2/3. In assay [3] (Group A: pre-administration 100 μg/mouse i.p., three hours later Pseudomonas aeruginosa 5.0×10^7 cells/mouse i.p., 24 hours later), the “Number of surviving mice/number of treated mice, 24 hours later (Group A)” value is recorded as 2/3. In assay [3] (Group A: pre-administration 100 μg/mouse i.p., three hours later Pseudomonas aeruginosa 5.0×10^7 cells/mouse i.p., 48 hours later), the “Number of surviving mice/number of treated mice, 48 hours later (Group A)” value is reported as 2/3. The “Number of surviving mice/number of treated mice, 2 hours later (Group B)” value in assay [3] (Group B: Pseudomonas aeruginosa 2.0×10^7 cells/mouse i.p., three hours later test compound 100 μg/mouse i.p., 2 hours later) is listed as 3/3. In assay [3] (Group B: Pseudomonas aeruginosa 2.0×10^7 cells/mouse i.p., three hours later test compound 100 μg/mouse i.p., 4 hours later), the “Number of surviving mice/number of treated mice, 4 hours later (Group B)” value was 3/3. In addition, the “Number of surviving mice/number of treated mice, 15 hours later (Group B)” value in assay [3] (Group B: Pseudomonas aeruginosa 2.0×10^7 cells/mouse i.p., three hours later test compound 100 μg/mouse i.p., 15 hours later) is recorded as 3/3. In assay [3] (Group B: Pseudomonas aeruginosa 2.0×10^7 cells/mouse i.p., three hours later test compound 100 μg/mouse i.p., 24 hours later), the “Number of surviving mice/number of treated mice, 24 hours later (Group B)” value is listed as 1/3. The “Number of surviving mice/number of treated mice, 48 hours later (Group B)” value in assay [3] (Group B: Pseudomonas aeruginosa 2.0×10^7 cells/mouse i.p., three hours later test compound 100 μg/mouse i.p., 48 hours later) is 1/3. Also, the “phagocytic ability of rabbit neutrophils, activity compared with TDCM” value with rabbit neutrophils [4] is “approximately 2 times”.

Source of the values: patent US8741871B2, “Trehalose compound, method for producing same, and pharmaceutical product containing the compound” (priority 2008, dated 2014).
